For 35 compounds, CC50 results are on record in ChEMBL document CHEMBL5303711, “ECBD screening data for assay EOS300108” (2023).

SMILES strings stand for the structures. Active and inactive are the calls of the source. No rule for the calls is given here.

A short description of the data set: Cytotoxicity activity against human HepG2 cells assessed by CellTiter-Glo luminescent cell viability assay. Format: toxicity, cell-based. Set-up: assay stage confirmatory assay, source tissue liver. Conditions: HepG2 cells, read-out: IC50 relative. A general note: Cellular ATP, detected with luciferase, serves as a proxy for viable cell number.

With `O=C(Cn1ncc(Cl)c(Cl)c1=O)N(Cc1ccco1)CC(F)(F)F`, the CC50 is 6.6 µM (active).
In the case of `O=C(Nc1nc(-c2ccccn2)cs1)c1ccc(-n2cncn2)cc1`, the CC50 was 1.5 µM (active).
With `CN(C)c1ccnc(CNC(=O)Nc2ncc(C(F)(F)F)s2)c1` the figure was 0.6 µM (active); with `Cc1cccc2cc(C(=O)Nc3ccc(N4CCN(C)CC4)cn3)oc12`, 12.6 µM (active).
Next, `O=C(Cc1cccc(F)c1)Nc1cccc2ncccc12`: 14.5 µM (inactive).
For `CC[C@H]1CC[C@@H](C)N(C(=O)c2nc(C3CC3)n3ccccc23)C1`, the CC50 was 7.5 µM (active).
In the case of `O=c1[nH]c(Cc2ccc(-n3cccn3)cc2)nc2ccccc12`, the CC50 was 2.1 µM (active).
With `COc1cc(OC)cc(C(=O)NCc2nc3ncc(Br)cc3[nH]2)c1` the figure was 3.7 µM (active).
With `Cc1cc(C(=O)Nc2ccccn2)c2ccccc2n1` the figure was 2.1 µM (active); with `CN(C)CCNC(=O)Cn1c(Cc2ccccc2)nn(-c2ccc(Cl)cc2)c1=O`, 11.7 µM (active); with `NC(=O)c1coc(-c2csc(-c3ccccc3O)n2)c1`, 2.5 µM (active).
Next, `Cc1nc(NC(=O)c2ccc(C)c(Br)c2)n(C)n1`: 11.7 µM (active); `CNC(=O)c1nnn(-c2ccc3ncccc3c2)c1C`: 2.2 µM (active).
For `Cc1cc(N2CCN([C@@H](C)c3nc(C(C)(C)C)no3)CC2)nc(C(C)C)n1`, the CC50 is 11.9 µM (active).
As to `COc1cc(F)ccc1NC(=O)c1ccc(-c2ccccn2)[nH]c1=O`, the CC50 was 11 µM (active).
Next, `COc1ccc(-c2nc(CN3CCN(C(=O)c4ccc5c(c4)OCO5)CC3)cs2)cc1`: 7.8 µM (active).
Next, `Cc1cc(C(=O)Nc2cccc(N(C)C(=O)c3coc(C)c3)c2)co1`: 1.3 µM (active).
Next, `Cc1cccc2nc(C(=O)Nc3ccc4c(c3)OC3(CCCC3)O4)cn12`: 11.9 µM (active); `COc1ccc(S(=O)(=O)N2CCN(C(=O)c3ccc(-c4ccc(C(C)=O)cc4)o3)CC2)cc1OC`: 8.5 µM (active); `COc1cc(-c2ccccc2)sc1C(=O)NC1CC1`: 13.4 µM (active).
In the case of `CC(C)c1nn(-c2ccccc2)cc1CNCC(C)(C)N1CCN(C)CC1`, the CC50 was 4.9 µM (active).
In the case of `O=C(NCc1ccc(-n2ccnc2)nc1)c1ccnc(O[C@H]2CCOC2)c1`, the CC50 is 8.9 µM (active).
Next, `CCCc1cnc(NC(=O)CCc2nnc(-c3ccsc3)o2)s1`: 8.5 µM (active); `COc1ccc(OC)c(N2C[C@@H](C(=O)Nc3ccc(Cl)cn3)CC2=O)c1`: 4.7 µM (active); `Cc1cccc2nc(C(=O)Nc3cccnc3-n3cccn3)cn12`: 7 µM (active).
With `Cc1cccc(N2CCN(CC(=O)c3c(N)n(CC(C)C)c(=O)n(C)c3=O)CC2)c1C` the figure was 10.7 µM (active); with `O=C(Cn1ncc(Cl)c(Cl)c1=O)N1CCC[C@H]1c1cccs1`, 4.2 µM (active).
With `CCC1(N(C)C)CCN(c2nc(N)c3cc(OC)c(OC)cc3n2)CC1` the figure was 11.2 µM (active).
As to `CCN(CC)S(=O)(=O)c1ccc(C(=O)Cn2ncc(Cl)c(Cl)c2=O)cc1`, the CC50 is 2 µM (active).
In the case of `NC(=O)c1cnc(NC(=O)c2cccc(S(=O)(=O)N3CCN(c4ccccc4)CC3)c2)s1`, the CC50 was 37.1 µM (inactive).
With `COc1ccc(-c2noc(=O)n2Cc2ncc(C)c(OC)c2C)cc1OC` the figure was 6.2 µM (active); with `CCn1c(NC(=O)c2ccc(OC)c(OC)c2)nc2cc(C#N)ccc21`, 2.3 µM (active); with `COc1ccc(C)cc1CN(C)C(=O)CCn1c(=O)[nH]c(=O)c2ccccc21`, 0.2 µM (active).
Next, `CCN1C[C@H](CN(C)CC(=O)c2c(N)n(C3CC3)c(=O)[nH]c2=O)Oc2ccccc21`: 13.8 µM (inactive); `Cc1ccc(CC(=O)N2CCN(C(=O)[C@@H]3CCCCO3)CC2)cc1`: 0.6 µM (active).
